From BindingDB's records for doi:10.3109/14756366.2011.590804 (University of Karachi, 2012)

The compounds below were run against Beta-glucuronidase (Escherichia coli (strain K12), UniProt P05804) (assay: β-Glucuronidase Inhibition Assay). Settings: pH 7; 37 °C.
Method: β-Glucuronidase inhibitory activity was evaluated by a biochemical assay, based on the measurement of the absorbance of p-nitrophenol at 405 nm, produced from the enzymatic hydrolysis of chromogenic substrate [Choudhary et al., Steroids, 74:1040-1044; Khan et al., Chem. Pharm. Bull., 50:1443-1446]. The reaction mixture, consisting of 5 μL of test compound solution, 185 μL of 0.1 M acetate buffer (pH 7.0) and 10 μL β-glucuronidase solution, was kept for 30 min at 37°C. The total reaction volume being 250 μL. 50 μL of p-nitrophenyl-β-D-glucuronide was added to each plate. A multiplate reader was used to read the absorbance at 405 nm.

Beta-glucuronidase, sequence (P05804 whole entry): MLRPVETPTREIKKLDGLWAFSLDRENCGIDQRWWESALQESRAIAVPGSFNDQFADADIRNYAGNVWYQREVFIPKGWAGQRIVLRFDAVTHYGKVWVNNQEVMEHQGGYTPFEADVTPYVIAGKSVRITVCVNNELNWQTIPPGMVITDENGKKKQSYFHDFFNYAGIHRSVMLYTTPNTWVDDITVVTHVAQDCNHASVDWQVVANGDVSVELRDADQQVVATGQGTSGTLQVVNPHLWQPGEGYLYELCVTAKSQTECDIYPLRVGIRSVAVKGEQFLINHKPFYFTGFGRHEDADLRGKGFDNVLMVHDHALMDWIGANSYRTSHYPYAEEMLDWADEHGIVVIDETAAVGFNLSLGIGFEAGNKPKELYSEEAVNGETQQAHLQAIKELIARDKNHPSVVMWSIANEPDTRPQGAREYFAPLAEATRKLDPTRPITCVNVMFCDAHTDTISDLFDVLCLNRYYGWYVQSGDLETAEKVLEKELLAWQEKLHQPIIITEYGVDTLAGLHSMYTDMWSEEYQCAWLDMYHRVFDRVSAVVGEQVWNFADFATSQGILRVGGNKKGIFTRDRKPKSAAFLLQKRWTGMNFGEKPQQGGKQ

SMILES	IC50 [µM]
C[C@]12CCC(=O)C=C1CC[C@@H]1[C@@H]2CC[C@]2(C)C(=O)CC[C@@H]12 [Androst-4-en-3,17-dione, 2]	430
C[C@]12CC[C@H]3[C@@H]([C@@H](O)CC4=C[C@@H](O)CC[C@@]43C)[C@@H]1CC[C@@H]2O [Androst-4-ene-3β,7β,17β-triol (8)]	191
C[C@]12CC[C@H](O)C=C1C(=O)C[C@@H]1[C@@H]2CC[C@]2(C)C(=O)CC[C@@H]12 [Androst-4-ene-3β-ol-6,17-dione (7)]	222
C[C@]12CCC(=O)CC1CC[C@@H]1[C@@H]2CC[C@]2(C)C(=O)CC[C@@H]12 (some centres undefined) [Androstane-3,17-dione (2)]	374
